Results published in patent US7767817B2, “Water soluble boronic acid fluorescent reporter compounds and methods of use thereof” (priority 2003, dated 2010).
Values joined by “and” are separate entries in the source; they are usually repeats but may differ in a detail not shown here. Equal entries are not always repeated. Where two headings read alike, the source gives them in different places.

Tests used:
[1] = Fluorescence binding study with fructose; details: for Association constant (Ka) with fructose: 0.1 M phosphate buffer pH 7.4, 1:1 complex assumed; for fluorescence intensity change ΔI/I0: pH 7.4
Description: (§1) For a typical sugar-BTBA fluorescent measurement, a 1.0×10^−5 M stock solution of BTBA in 0.10 M phosphate buffer at pH 7.4 was made as solution A. […] Solution B was titrated into solution A in order to make mixtures with a constant concentration of BTBA and a range of concentrations of the sugar. Each mixture was allowed to stand for at least 10 min, then 3.0 mL of the mixture was transferred into a cuvette for fluorescence measurement.
(§2) The association constants (Ka) were determined according to the method III in Valeur's publication (J. Phys. Chem. 1988, 92, 6233).

[2] = Fluorescence binding study with galactose; details: for Association constant (Ka) with galactose: 0.1 M phosphate buffer pH 7.4, 1:1 complex assumed; for fluorescence intensity change ΔI/I0: pH 7.4
Description: as §1, §2

[3] = Fluorescence binding study with mannose; details: for Association constant (Ka) with mannose: 0.1 M phosphate buffer pH 7.4, 1:1 complex assumed
Description: as §1, §2

[4] = Fluorescence binding study with arabinose; details: 0.1 M phosphate buffer pH 7.4
Description: For a typical sugar-BTBA fluorescent measurement, a 1.0×10^−5 M stock solution of BTBA in 0.10 M phosphate buffer at pH 7.4 was made as solution A. The sugar was added to a portion of solution A to make a 1.0×10^−5 M BTBA, 1.0×10^−3 M sugar solution as solution B. Solution B was titrated into solution A in order to make mixtures with a constant concentration of BTBA and a range of concentrations of the sugar. Each mixture was allowed to stand for at least 10 min, then 3.0 mL of the mixture was transferred into a cuvette for fluorescence measurement.
as §2

[5] = Fluorescence intensity pH profile (apparent pKa); format: physicochemical
Description: Since the fluorescence intensity increase upon binding with a sugar seems to be a general phenomenon, the fluorescence change mechanism of compound 5 at pH 7.4 was investigated. For this purpose, the fluorescence pH profiles of both compound 5 alone and compound 5 in the presence of fructose (0.5 M) were studied. The fluorescence intensity of 5 at 334 nm in the absence of sugars decreased upon changing the pH from 3 to 12 (FIG. 3). An apparent pKa of 7.0 was observed, which is assigned to the boronic acid moiety. […] It is well-known that the binding of a diol to boronic acid often lowers the pKa of the boron species) (Springsteen, G.; Wang, B. Tetrahedron 2002, 58, 5291-5300). Therefore, the pKa, which drops from 7.0 to 4.0, can also be reasonably assigned to boron. […] It seems that the fluorescence intensity change of compound 5 is also due to diol's perturbation as that of 8-quinolineboronic acid.
To examine the relationship between the fluorescence intensity changes and the boron ionization states, the pH profile of the fluorescence intensity in the absence and presence of fructose and glucose at a fixed concentration (50 mM) was also studied (FIG. 6). […] It is worth mentioning that the pKa of the protonated dimethyl amino group of 1 is […] the emission wavelength of 1 with the protonated dimethyl amino group at low pH is about 238 nm. Therefore, the fluorescence intensity of 1 at 445 nm was not affected by the protonated dimethyl amino group. The fluorescence intensity changes correspond to the boronic acid pKa (9.4) and therefore hybridization changes, which was responsible for the fluorescence intensity changes observed.
Since the fluorescence intensity increase upon binding with a sugar seems to be a general phenomenon, next the conditions under which optimal fluorescence intensity changes are observed upon addition of a sugar was investigated. For this purpose, the fluorescence pH profiles of both compound 6 alone and in the presence of fructose (0.5 M) were studied. The fluorescence intensity of 6 in the absence of sugars increased by 17-fold upon changing the pH from 3 to 12 (FIG. 10). […] Furthermore, one would expect the pKa values of the other two ionizable groups, the carboxylic acid and the quinolinium groups, to be less than 7. Therefore, assigning the pKa at 7.9 to the boronic acid moiety is the most reasonable option. […] It is well-known that the binding of a diol to boronic acid often lowers the pKa of the boron species. […] Upon addition of fructose, the pKa of the boron drops to about 5.2, which ensures that most of the boron species are in the anionic tetrahedral state at physiological pH.
(§3) Since the fluorescence intensity increase upon binding with a sugar seems to be a general phenomenon, the use of 5-QBA functions as a fluorescent probe for diols was investigated. The fluorescence pH profiles of both 5-QBA alone and 5-QBA in the presence of D-fructose (0.5 M) were investigated. […] In order to assign each pKa, the ^11B NMR spectra of 5-QBA and its ester in a mixed deuterated methanol-water (1:1) solvent at different pH were obtained. Methanol was used so that the concentration of 5-QBA can be increased to 57 mM so as to allow for a meaningful NMR determination within a reasonable period of time.
To understand the structural features associated with the fluorescence intensity changes, we studied the pH profiles of the fluorescence intensity in the absence (FIG. 18) and presence of fructose and glucose at a fixed concentration (50 mM). […] The fluorescence intensity at 513 nm increased very quickly when pH increased from 1.78 to 7.04 (thin lines in FIG. 18), and then decreased in the pH range of 7.04-10.54 (thick lines in FIG. 18).

[6] = 11B NMR at different pH (pKa assignment); format: physicochemical; details: absence of sugar; 11B NMR in deuterated methanol-water (1:1); read-out: second pKa corresponding to boronic acid ionization
Description: as §3
It should be noted that the addition of 50% methanol to water solution results in minimal changes of the solution pH. The boron signal of 5-QBA appeared at 30.0 ppm at both pH 2.0 and 7.0, consistent with the neutral trigonal boron. At an increased pH (7.5), two boron signals at 30.0 and 10.0 ppm were observed indicating a mixture of both the neutral and anionic species. […] At pH 12, a single peak at 5.7 ppm was found indicating the presence of only the anionic tetrahedral state. […] This pKa assignment is opposite to that of 8-QBA. For the fructose ester of 5-QBA, we observed the same chemical shifts (at about 10.5 ppm) at pH 6.0 and 11. […] Such a pKa-switching seems to correspond to the highest fluorescence intensity change at pH 5.8 (FIG. 13).

[7] = Fluorescence binding study with glucose; details: for Association constant (Ka) with glucose: 0.1 M phosphate buffer pH 7.4, 1:1 complex assumed; for fluorescence intensity change ΔI/I0: pH 7.4; for maximum fluorescence intensity increase: physiological pH
Description: as §1, §2

[8] = Fluorescence binding study with sorbitol
Description: as §1, §2

[9] = Fluorescence binding study with tagatose
Description: as §1, §2

[10] = Fluorescence quantum yield; format: physicochemical; details: 0.1 M phosphate buffer pH 7.4
Description: The effect of various carbohydrates on the fluorescent properties of compound 1 was determined in phosphate buffer at pH 7.4. The emission spectral change of 1 with fructose at different concentrations in 0.1 M aqueous phosphate buffer (pH 7.4) is shown in FIG. 4. A 41-fold emission intensity increase is observed in presence of 50 mM fructose. To the best of our knowledge, such a large emission intensity increase has never been reported for boronic acid-based saccharide sensors involving the ICT mechanism. The quantum yields of 1 in the absence (φF=0.010) and in the presence of 50 mM fructose (φF=0.42) in 0.1 M phosphate buffer (pH 7.4) were obtained using 8-quinoline boronic acid (φF=0.58 in 12 M H2SO4) as a reference compound.
For example, addition of fructose (50 mM) to the solution of 7 induced a 36-fold fluorescence intensity increase at 433 nm and a 0.55-fold fluorescence intensity decrease at 513 nm (FIG. 14). […] To the best of our knowledge, such large emission intensity changes at two wavelengths have never been reported for boronic acid-based saccharide sensors. The quantum yields (φF) of 7 were determined as 0.07 at 513 nm in 0.1 M phosphate buffer (pH 7.4) in the absence of a sugar and 0.23 at 433 nm in the presence of 50 mM of fructose, using 8-quinoline boronic acid (φF=0.58 in 12 M H2SO4) as a reference compound.

[11] = in 12 M H2SO4; reference compound; cited from earlier work
[12] = literature value (Springsteen, Wang); cited from earlier work
[13] = literature value (Springsteen, Wang); cited from earlier work; remark: listed apart in the source
[14] = literature value; cited from earlier work
[15] = 0.1 M phosphate buffer pH 7.4, 1:1 complex assumed
[16] = 0.1 M phosphate buffer, absence of sugar, 0.1 M phosphate buffer, read-out: apparent pKa assigned to the boronic acid moiety

SMILES: OB(O)c1cccc2ncccc12 [Compound 3]
- Association constant (Ka) with fructose [1]: 924 ± 88 M⁻¹
- binding constant with D-fructose, increase compared with 8-QBA ([1]; 5-QBA versus 8-QBA): more than 8 folds
- Association constant (Ka) with galactose [2]: 90 ± 2 M⁻¹
- Association constant (Ka) with mannose [3]: 60 ± 2 M⁻¹
- Binding constant with arabinose [4]: 121 ± 16 M⁻¹
- pKa ([5]; phosphate buffer, absence of a sugar, read-out: pKa assigned to the quinolinium nitrogen): 5.2
- pKa [6]: 7 to 12

SMILES: CN(C)c1ccc(B(O)O)c2ccccc12 [Compound 1, 4-(dimethylamino)-naphthalene boronic acid]
- emission intensity increase ([1]; 50 mM fructose, 0.1 M aqueous phosphate buffer pH 7.4): 41 fold
- fluorescence intensity change ΔI/I0 ([1]; fructose 0.025 M, λex 270 nm, λem 400 nm): 25 (0.025)
- fluorescence intensity change ΔI/I0 ([1]; fructose 0.05 M, λex 300 nm, λem 445 nm): 41 (0.05)
- fluorescence intensity change ([1]; fructose at concentrations above 50 mM, physiological pH): more than 40 fold
- fluorescence intensity change ΔI/I0 ([2]; galactose 0.025 M, λex 270 nm, λem 400 nm): 16 (0.025)
- fluorescence intensity change ΔI/I0 ([2]; galactose 0.50 M, λex 300 nm, λem 445 nm): 35 (0.50)
- Association constant (Ka) with mannose [3]: 48 ± 5 M⁻¹
- fluorescence intensity change ΔI/I0 ([3]; mannose 0.025 M, pH 7.4, λex 270 nm, λem 400 nm): 14 (0.025)
- Association constant (Ka) with glucose [7]: 4.0 ± 0.1 M⁻¹ and 5.1 ± 1.0 M⁻¹
- fluorescence intensity change ΔI/I0 ([7]; glucose 0.20 M, λex 270 nm, λem 400 nm): 6 (0.20)
- fluorescence intensity change ΔI/I0 ([7]; glucose 1.0 M, λex 300 nm, λem 445 nm): 17 (1.0)
- maximum fluorescence intensity increase ([7]; glucose 1 M): 17 fold
- Association constant (Ka) with sorbitol [8, 15]: 226 ± 5 M⁻¹
- fluorescence intensity change ΔI/I0 ([8]; sorbitol 0.10 M, pH 7.4, λex 300 nm, λem 445 nm): 42 (0.10)
- fluorescence intensity change ([8]; sorbitol at concentrations above 50 mM, physiological pH): more than 40 fold
- Association constant (Ka) with tagatose [9, 15]: 116 ± 2 M⁻¹
- fluorescence intensity change ΔI/I0 ([9]; tagatose 0.02 M, pH 7.4, λex 300 nm, λem 445 nm): 32 (0.02)
- pKa [5, 16]: 9.4
- quantum yield φF ([10]; absence of sugar): 0.010
- quantum yield φF ([10]; presence of 50 mM fructose): 0.42

SMILES: OB(O)c1cccc2cccnc12 [Compound 4, 8-quinolineboronic acid]
- quantum yield φF [11]: 0.58

SMILES: O=C(O)c1cc(-c2ccc(B(O)O)cc2)nc2ccccc12 [Compound 6, 2-(4-phenylboronic acid)-quinoline-4-carboxylic acid]
- emission intensity increase ([1]; 25 mM fructose, phosphate buffer pH 7.4): 25 fold
- maximum fluorescence intensity increase ([7]; glucose 0.2 M): 6 fold
- pKa [5, 16]: 7.9

SMILES: OB(O)c1ccccc1 [phenylboronic acid]
- Ka for glucose [12]: 5 M⁻¹
- Ka for galactose [13]: 15 M⁻¹
- Ka for fructose [14]: 162 M⁻¹

SMILES: OB(O)c1cc2ccccc2s1 [Compound 5, 2-Benzothienylboronic acid]
- Association constant (Ka) with fructose [1]: 656 ± 28 M⁻¹
- Association constant (Ka) with galactose [2]: 19 M⁻¹ and 19 ± 0.7 M⁻¹
- Association constant (Ka) with mannose [3]: 30 ± 1.4 M⁻¹
- Association constant (Ka) with glucose [7]: 27 M⁻¹ and 27 ± 4.9 M⁻¹
- pKa [5, 16]: 7
